Laboratory results published in patent US8455544B2, “Synthetic triterpenoids and methods of use in the treatment of disease” (Reata Pharmaecuticals, Inc., priority 2008, dated 2013).

How the values were obtained:
[1] = system: patients with cancer; experiment: Phase I clinical trial in patients with cancer (solid tumor study): serum creatinine, eGFR; assay type: in vivo, human
Procedure: FIGS. 4A-B—RTA 402 reduces serum creatinine levels and increases the estimated glomerular filtration rate (eGFR) in human patients with cancer. FIG. 4A: Serum creatinine was measured in RTA 402-treated patients enrolled in a Phase I clinical trial for the treatment of cancer. The patients were administered RTA 402 (p.o.) once daily for 21 days at doses ranging from 5 to 1,300 mg/day. The percent reduction of serum creatinine relative to baseline levels is shown for the indicated study days. Significant decreases in serum creatinine levels were observed on Days 15 and 21. FIG. 4B: The estimated glomerular filtration rate (eGFR) was calculated for the patients in FIG. 4A. […] All patients: n=24; patients with baseline ≧1.5: n=5. For FIGS. 4A and 4B, * indicates p≦0.04; † indicates p=0.01, and ‡ indicates p≦0.01. Note: in FIG. 4A, “% Reduction from Baseline” on the vertical axis indicates percent change. For example, a reading of −15 on this axis indicates a 15% reduction in serum creatinine.
FIG. 5—RTA 402 increases GFR in human patients with cancer. Estimated glomerular filtration rate (eGFR) was measured in RTA 402-treated patients enrolled in a multi-month clinical trial for the treatment of cancer. All patients (n=11) dosed through six months were included in the analysis. The dosing information for these patients is provided in Example 5, below.
Serum creatinine has also been measured in patients with cancer enrolled in a Phase I clinical trial of RTA 402. These patients received RTA 402 once daily at doses from 5 to 1,300 mg/day for a total of twenty-one days every 28 days. A reduction in serum creatinine by greater than 15% was observed as early as eight days following treatment initiation and persisted through the end of the cycle (FIG. 4A). This reduction was maintained in those patients that received six or more cycles of treatment with RTA 402. […] In these patients, serum creatinine levels decreased progressively throughout the cycle such that the Day 21 levels were approximately 25% lower than baseline levels (FIG. 4A).
Some of these patients were enrolled in the Phase I study, whereas others were enrolled in a study of RTA 402 (in combination with gemcitabine) in patients with pancreatic cancer.

[2] = system: circulating endothelial cells (CECs); experiment: Circulating endothelial cells (CECs) and iNOS-positive CECs, Phase II study; assay type: in vivo, human
Description: The mean number of CECs in cells/mL is shown for intent-to-treat (ITT) and elevated baseline groups, both before and after the 28 day RTA treatment. The reduction for the Intent-to-treat group was approximately 20%, and the reduction in the elevated baseline group (>5 CECs/ml) was approximately 33%. The fraction of iNOS-positive CECs was reduced approximately 29%.
CECs were isolated from whole blood by using CD146 Ab (an antibody to the CD146 antigen that is expressed on endothelial cells and leukocytes). After CEC isolation, a FITC (fluorescein isothiocyanate) conjugated CD105 Ab (a specific antibody for endothelial cells) is used to identify CECs using the CellSearch™ system. A fluorescent conjugate of CD45 Ab was added to stain the leukocytes, and these were then gated out. For a general overview of this method, see Blann et al., (2005), which is incorporated herein by reference in its entirety. CEC samples were also assessed for the presence of iNOS by immunostaining.

For COC(=O)[C@]12CCC(C)(C)C[C@H]1[C@H]1C(=O)C=C3[C@@]4(C)C=C(C#N)C(=O)C(C)(C)[C@@H]4CC[C@@]3(C)[C@]1(C)CC2 [RTA 402, methyl-2-cyano-3,12-dioxooleana-1,9-dien-28-oic acid], the “Reduction in serum creatinine” value ([1]; 5 to 1,300 mg/day once daily for 21 days every 28 days, as early as eight days following treatment initiation) was “greater than 15%”, the “Serum creatinine lower than baseline levels” value ([1]; Day 21, subset with baseline serum creatinine of at least 1.5 mg/dl) was “approximately 25%” and the “Estimated glomerular filtration rate (eGFR)” value ([1]; Phase I patients, 21 days) was “significantly improved”. The eGFR ([1]; Pt 402, dose 5 mg, cycle 1 (28 days each), BL 109.7) was 109.7, the eGFR ([1]; Pt 402, dose 5 mg, cycle 2, BL 109.7) was 109.7 and the eGFR ([1]; Pt 402, dose 5 mg, cycle 3, BL 109.7) was 95.7. It also gave an eGFR ([1]; Pt 402, dose 5 mg, cycle 4, BL 109.7) of 95.7, an eGFR ([1]; Pt 402, dose 5 mg, cycle 5, BL 109.7) of 109.7 and an eGFR ([1]; Pt 402, dose 5 mg, cycle 6, BL 109.7) of 95.7. It also gave an eGFR ([1]; Pt 406, dose 80 mg, cycle 1, BL 94.2) of 125.9, an eGFR ([1]; Pt 406, dose 80 mg, cycle 2, BL 94.2) of 107.9 and an eGFR ([1]; Pt 406, dose 80 mg, cycle 3, BL 94.2) of 107.9. It also gave an eGFR ([1]; Pt 406, dose 80 mg, cycle 4, BL 94.2) of 125.9, an eGFR ([1]; Pt 406, dose 80 mg, cycle 5, BL 94.2) of 107.9 and an eGFR ([1]; Pt 406, dose 80 mg, cycle 6, BL 94.2) of 125.9. The eGFR ([1]; Pt 408, dose 150 mg, cycle 1, BL 73.2) was 82.1, the eGFR ([1]; Pt 408, dose 150 mg, cycle 2, BL 73.2) was 77.4 and the eGFR ([1]; Pt 408, dose 150 mg, cycle 3, BL 73.2) was 69.4. It also gave an eGFR ([1]; Pt 408, dose 150 mg, cycle 4, BL 73.2) of 77.4, an eGFR ([1]; Pt 408, dose 150 mg, cycle 5, BL 73.2) of 77.4 and an eGFR ([1]; Pt 408, dose 150 mg, cycle 6, BL 73.2) of 87.4. The eGFR ([1]; Pt 409, dose 150/300 mg, cycle 1, BL 48.4) was 62.6, the eGFR ([1]; Pt 409, dose 150/300 mg, cycle 2, BL 48.4) was 62.6 and the eGFR ([1]; Pt 409, dose 150/300 mg, cycle 3, BL 48.4) was 62.6. It also gave an eGFR ([1]; Pt 409, dose 150/300 mg, cycle 4, BL 48.4) of 57.0, an eGFR ([1]; Pt 409, dose 150/300 mg, cycle 5, BL 48.4) of 69.2 and an eGFR ([1]; Pt 409, dose 150/300 mg, cycle 6, BL 48.4) of 69.2. The eGFR ([1]; Pt 410, dose 300/600 mg, cycle 1, BL 49.9) was 69.6, the eGFR ([1]; Pt 410, dose 300/600 mg, cycle 2, BL 49.9) was 63.4 and the eGFR ([1]; Pt 410, dose 300/600 mg, cycle 3, BL 49.9) was 63.4. It also gave an eGFR ([1]; Pt 410, dose 300/600 mg, cycle 4, BL 49.9) of 69.6, an eGFR ([1]; Pt 410, dose 300/600 mg, cycle 5, BL 49.9) of 63.4 and an eGFR ([1]; Pt 410, dose 300/600 mg, cycle 6, BL 49.9) of 69.6. For the same compound, the eGFR ([1]; Pt 421, dose 1300/900 mg, cycle 1, BL 52.5) was 58.6, the eGFR ([1]; Pt 421, dose 1300/900 mg, cycle 2, BL 52.5) was 66.2 and the eGFR ([1]; Pt 421, dose 1300/900 mg, cycle 3, BL 52.5) was 75.8. The eGFR ([1]; Pt 421, dose 1300/900 mg, cycle 5, BL 52.5) was 88.4, the eGFR ([1]; Pt 421, dose 1300/900 mg, cycle 6, BL 52.5) was 75.8 and the eGFR ([1]; Pt 427, dose 1300 mg, cycle 1, BL 70.1) was 101.3. It also gave an eGFR ([1]; Pt 427, dose 1300 mg, cycle 2, BL 70.1) of 78.3, an eGFR ([1]; Pt 427, dose 1300 mg, cycle 3, BL 70.1) of 88.4 and an eGFR ([1]; Pt 427, dose 1300 mg, cycle 4, BL 70.1) of 101.3. The eGFR ([1]; Pt 427, dose 1300 mg, cycle 5, BL 70.1) was 101.3, the eGFR ([1]; Pt 427, dose 1300 mg, cycle 6, BL 70.1) was 101.3 and the “% Serum Creatinine Decrease from Baseline” value ([1]; all patients, n=45, Day 21) was −18.3%. The “% of Patients with Decrease on Day 21 (serum creatinine)” value ([1]; all patients, n=45, drug for at least 3 weeks) was 87%, the “% of Patients with Decrease on Day 21 (serum creatinine)” value ([1]; sub-set with elevated baseline serum creatinine levels, n=8) was 100% and the “% Serum Creatinine Decrease from Baseline” value ([1]; sub-set with elevated baseline serum creatinine levels, n=8, Day 21) was −24.5%. For the same compound, the “Reduction of mean number of CECs” value ([2]; 28 days, elevated baseline group (>5 CECs/ml)) was “approximately 33%”, the “Reduction in CECs” value ([2]; 28 days, elevated baseline group, n=14, p=0.02) was 40% and the “Reduction of the fraction of iNOS-positive CECs” value ([2]; 28 days, immunostaining) was “approximately 29%”. For the same compound, the “Reduction of mean number of CECs” value ([2]; 28 days, intent-to-treat group) was “approximately 20%”, the “Reduction in CECs” value ([2]; 28 days, intent-to-treat group, n=20) was 27% and the “Patients with a normal level for CECs post-treatment” value ([2]; of the elevated baseline group, n=14) was “nine”. For the same compound, the “Normalization of CEC values (≦5 cells/mL), patients” value ([2]; patients with elevated baseline) was 11 out of the 19.
